For assay [1], the system named is CD133+ cells. Description: Cleaved-Caspase 3 staining of CD133+ cells. The following applies: CD133+ cells enriched with antibody magnetic beads. The class given is cell-based. The text has this:
CSC isolation with surface markers: Sorting tumor cells based primarily upon the differential expression of the surface marker(s), such as CD44 or CD133, have accounted for the majority of the highly tumorigenic CSCs described to date. CD133 isolation is based upon the method of Ricci-Vitiani et al., with slight modification. CD133^+ cells were isolated by either fluorescence activated cell sorting (FACS) or magnetic nanoparticle-based separation. Briefly, 10^7 cells/mL were labeled with CD133/1 (AC133)-PE for FACS-based cell sorting; or with CD133/1 (AC133)-biotin (Miltenyi Biotec, Auburn, Calif.) for magnetic field-based separation using the EasySep® biotin selection kit (Miltenyi Biotec) according to the manufacturer's recommendations. Non-specific labeling was blocked with the supplied FcR blocking reagent and antibody incubations (1:11) were carried out on ice for 15 minutes in PBS with 2% FBS and 1 mM EDTA. Five washes were done for EasySep® isolation, whereas cells were pelleted at 400×g for 5 minutes and resuspended at 2×10^7/mL, before sorting by FACS.
Immunofluorescence: Cells treated with indicated compound for an indicated time were either fixed in 4% formaldehyde or cold methanol for the detection of Annexin V, cleaved caspase 3, or stat3, respectively. Coverslips were air dried and rehydrated in PBS at room temperature for 10 min. […]

Assay [2] relates to CD44high CSCs (FaDu). In words: Sphere assay (CSC spherogenesis). The class given is cell-based, human. The following applies: FACS-isolated CD44high CSCs grown as spheres for 72 hours before challenge. The method, then: CD44^high cells were isolated by FACS according to the methods described in Ponti et al, with slight modification. Briefly, after trypsinization and recovery of cells for 30 minutes at 37° C. in growth media, cells were pelleted at 400×g and were resuspended in PBS with 2% FBS and 1 mM EDTA at 1×10^6 cells/mL. Cells were then incubated on ice with a 1:100 dilution of CD44-FITC (BD Biosicences, San Diego, Calif.) for 15 minutes. Alternatively, CD24-PE (BD Bioscences, San Diego, Calif.) (1:100) was utilized for negative selection. After washing three times, cells were resuspended at 2×10^6/mL and passed through a […] mesh before sorting
Sphere assay: A reliable method of measuring the self-renewal capacity of cell population if the ability to be cultured as spheres in the absence of serum or attachment. CD44^high FaDu or Hoechst side population cancer stem cells were cultured in ultra low attachment plates in cancer stem cell media (DMEM/F12, B27 Neurobasal supplement, 20 ng/ml EGF, 10 ng/ml FGF, 4 μg/ml insulin, and 0.4% BSA) to allow spheres formation. Typically, sphere formation was evaluated by microscopy after 10-14 days in culture and spheres with >50 cells were scored.
Identification of compounds that inhibit CSC spherogenesis in vitro. One of the hallmarks of cancer stem cells is their ability to self-renew. A reliable method of measuring the self-renewal capacity of cell populations is the ability to be cultured as spheres in the absence of serum or attachment. To compare the ability of compound 401 to other targeted and chemotherapeutic agents, FACS-isolated CD44^high CSCs were grown as spheres for 72 hours before being challenged with a panel of therapeutic agents. […] Tarceva, Sutent, and Gleevec were added at approximately three times their reported therapeutic concentrations.

The structures appear in SMILES notation. Entries after “also recorded” stand apart in the source; their conditions may differ.

As to `CC(=O)c1cc2c(o1)C(=O)c1ccccc1C2=O` [Compound 401, 2-acetylnaphtho[2,3-b]furan-4,9-dione], the “Cleaved-Caspase 3 staining (apoptosis)” value in assay [1] is reported as “many of the CD133^+ cells become cleaved-Caspase 3 positive; also recorded: apoptotic”. In addition, the “Effect on CSC sphere proliferation / formation” value in assay [2] is “effective at preventing sphere proliferation; also recorded: blocks”.
